PubChem BioAssay (NCI)
Several values for one entry are separate records, joined by “and”; a condition that tells them apart may be missing. Equal entries are not always repeated.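 All cell lines were grown in 96-well plates and treated with compound for 48 hours. GI50 is the concentration that inhibits growth by half. Definition used: TGI = concentration required for complete inhibition of growth.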 *1 amine or outer side, *2 acyl side, *3 side chain or, on linkers, in order; H or OH if unused. Where a SMILES comes first, the peptide text is derived from it. Bridges are numbered along the chain shown (N, C = ends). [ ]: non-standard residue; d: D form. The star is where a group is joined. Phe(3,5-F2) = N[C@@H](Cc1cc(F)cc(F)c1)C(=O)O; Pro(4R-Me) = C[C@H]1CN[C@H](C(=O)O)C1; aThr = C[C@H](O)[C@H](N)C(=O)O; Pip = O=C(O)[C@@H]1CCCCN1; X10 = Fc1cc(C2CC2)ccc1N*; CO = O=C([*:1])[*:2]

Columns and labels:
Assay in all cases: DTP human tumour cell line panel, 48 h
U251 CNS = tested on: U251 CNS
OVCAR-3 ovarian = tested on: OVCAR-3 ovarian
NCI-H226 lung = tested on: NCI-H226 lung
CAKI-1 renal = tested on: CAKI-1 renal
HT29 colon = tested on: HT29 colon
M14 melanoma = tested on: M14 melanoma
SN12C renal = tested on: SN12C renal
SW-620 colon = tested on: SW-620 colon
MDA-MB-435 = tested on: MDA-MB-435
RPMI-8226 leukemia = tested on: RPMI-8226 leukemia

SMILES | GI50 (U251 CNS) | TGI (U251 CNS) | GI50 (OVCAR-3 ovarian) | TGI (OVCAR-3 ovarian) | GI50 (NCI-H226 lung) | TGI (NCI-H226 lung) | GI50 (CAKI-1 renal) | TGI (CAKI-1 renal) | GI50 (HT29 colon) | TGI (HT29 colon) | GI50 (M14 melanoma) | TGI (M14 melanoma) | GI50 (SN12C renal) | TGI (SN12C renal) | GI50 (SW-620 colon) | TGI (SW-620 colon) | GI50 (MDA-MB-435) | TGI (MDA-MB-435) | GI50 (RPMI-8226 leukemia) | TGI (RPMI-8226 leukemia)
C=CC(=O)Nc1cc(Nc2ncc(C(=O)OC(C)C)c(-c3cn(C)c4ccccc34)n2)c(OC)cc1N(C)CCN(C)C | 3.98 µM | 12.2 µM | 2.58 µM | 12.3 µM | 7.45 µM | 29.5 µM | 1.32 µM | 9.32 µM | 2.32 µM | 5.99 µM | 1.87 µM | 3.74 µM | 3.02 µM | 15.4 µM | 3.25 µM | 8.88 µM | 3 µM | 7.6 µM | 2.86 µM | 14.6 µM
CCC(=O)[C@H](C)[C@@H](OC(=O)[C@H](C)CC)[C@H](C)[C@H]1OC(CC)=C(C)C(=O)[C@@H]1C | 17.6 µM | 35.8 µM | 17.4 µM | 36.8 µM | 16 µM | 31.6 µM | 21.2 µM | 52 µM | 13.4 µM | 32.8 µM | 22.8 µM | 72.5 µM | 15.4 µM | 29.8 µM | 24.7 µM | 62.5 µM | 21.5 µM | 56.1 µM | 10.1 µM | 35.1 µM
OCCN(CCO)c1ncnc2c1ncn2Cc1ccc(CCl)cc1 | 15.7 µM | 29.8 µM | 19.4 µM | 34.9 µM | 23.4 µM | 58 µM | 14.5 µM | 30 µM | 32.5 µM | > 100 µM | 13.8 µM | 28.4 µM | 21 µM | 45.8 µM | 10.8 µM | 27.3 µM | 14.5 µM | 29.3 µM | 17.2 µM | > 100 µM
Cc1ccc(CN2CCC(C(=O)Nc3ccc(-c4cc5ccccc5[nH]4)cc3)CC2)o1 | 21 µM | > 100 µM | > 100 µM | > 100 µM | > 100 µM | > 100 µM | > 100 µM | > 100 µM | 94.2 µM | > 100 µM | 66.1 µM | > 100 µM | > 100 µM | > 100 µM | > 100 µM | > 100 µM | > 100 µM | > 100 µM | > 100 µM | > 100 µM
COc1cccc(C2c3cc4c(cc3OC(C)(N3CCCC3)C2C)OCO4)c1O (centres undefined) |  | 53.8 µM |  | 5.45 µM |  | 19.9 µM |  | 28.7 µM |  | 12.2 µM |  | 14 µM |  | 48.6 µM |  | > 100 µM |  | 3.82 µM |  | 36.5 µM
c1ccc(-c2nc(-c3ccccc3SSc3ccccc3-c3nc(-c4ccccc4)nn3-c3ccccc3)n(-c3ccccc3)n2)cc1 |  | > 100 µM |  | > 100 µM |  | > 100 µM |  | > 100 µM |  |  |  | > 100 µM |  | > 100 µM |  | > 100 µM |  | > 100 µM |  | > 100 µM
Nc1c(C(=O)c2cccc(CCS(N)(=O)=O)c2)cnn1-c1ccc(F)cc1 | > 25 µM | > 25 µM | > 25 µM | > 25 µM | > 19.7 µM | > 25 µM | > 25 µM | > 25 µM | > 25 µM | > 25 µM | > 25 µM | > 25 µM | > 25 µM | > 25 µM | > 25 µM | > 25 µM | > 25 µM | > 25 µM | > 25 µM | > 25 µM
NC(N)=NS(=O)(=O)c1ccc(Nc2c3ccccc3nc3c(C(=O)NCCO)cccc23)cc1 | 26 µM |  | 17.1 µM |  |  | 0.322 µM | 22.8 µM |  | 29.7 µM |  | 26.3 µM |  | 26.7 µM |  | 17.2 µM |  | 23.3 µM |  | 15 µM | 
COc1ccc(CC2c3cc4c(cc3CCN2C)OCO4)c(C=O)c1OC (centres undefined) |  | > 100 µM |  | > 100 µM |  | > 100 µM |  | > 100 µM |  | > 100 µM |  | > 100 µM |  | > 100 µM |  | > 100 µM |  | > 100 µM |  | > 100 µM
Cc1nc2sccn2c1-c1csc(Nc2ccccc2Cl)n1 | 3.7 µM | 24.1 µM | 3.18 µM | 19.1 µM | 3.38 µM | 45.1 µM | 3.06 µM | 40.7 µM | 3.08 µM | 13.6 µM | 3.38 µM | 18 µM | 3.58 µM | > 100 µM | 3.22 µM | 25.9 µM | 0.69 µM | 8.61 µM | 1.93 µM | 19.1 µM
O=C(Nc1ccccc1)c1c(O)[nH]c(=S)[nH]c1=O | 66.5 µM | 109 µM and > 250 µM | 10.9 µM | 74.8 µM and 71.3 µM |  | 107 µM | 28 µM | 58.1 µM and 127 µM | 93.5 µM | 125 µM and > 250 µM |  | 108 µM |  | 112 µM | 74.4 µM | 97.7 µM and > 250 µM |  | 46.8 µM |  | 79 µM and > 25 µM
Cc1ccc(Cl)c2c(N=Nc3ccccc3[N+](=O)[O-])c(O)[nH]c12 |  | > 100 µM |  | > 100 µM |  | > 100 µM |  | > 100 µM |  | > 100 µM |  | > 100 µM |  | > 100 µM |  | > 100 µM |  | 35.3 µM |  | > 100 µM
Cc1ccsc1C(=S)Nc1ccc(Cl)c(/C=N/OC(C)(C)C)c1 |  | 79.3 µM |  | > 100 µM |  | > 100 µM |  | > 100 µM |  | 27.1 µM |  | > 100 µM |  | > 100 µM |  | > 100 µM |  | > 100 µM |  | > 100 µM
C[C@@H]1C[C@H]2C(=O)O[C@@H](C)[C@H](NC(=O)[C@H](Cc3cc(F)cc(F)c3)NC(=O)Nc3ccc(C4CC4)cc3F)C(=O)N3CCC[C@H]3C(=O)N3CCCC[C@H]3C(=O)N[C@@H](C)C(=O)N2C1 ({X10-CO}-[Phe(3,5-F2)][aThr]P[Pip]A[Pro(4R-Me)]; ester 2-C) | 0.0479 µM | > 46 µM | 0.043 µM | 3.27 µM | 0.0524 µM | 4.35 µM | 0.04 µM | 10.3 µM | 0.0496 µM | 7.95 µM | 0.0436 µM | 2.41 µM | 0.0401 µM | 42.7 µM | 0.0534 µM | > 100 µM | 0.0423 µM | 2.71 µM | 0.0287 µM | 0.878 µM
